The record followed here is patent US9145372B2, “Pyridazine derivatives, compositions and methods for treating cognitive impairment” (AGENEBIO, INC., priority 2010, dated 2015).

For series [1], the target named is T1, GABAA α5β3γ2 subtype receptor (Homo sapiens, UniProt P18507+P31644).
T1 construct: myc-His (vector-encoded); expressed in transfected cells; host or cells: Xenopus laevis oocytes injected with cDNAs
T1 sequence (P31644 32-462): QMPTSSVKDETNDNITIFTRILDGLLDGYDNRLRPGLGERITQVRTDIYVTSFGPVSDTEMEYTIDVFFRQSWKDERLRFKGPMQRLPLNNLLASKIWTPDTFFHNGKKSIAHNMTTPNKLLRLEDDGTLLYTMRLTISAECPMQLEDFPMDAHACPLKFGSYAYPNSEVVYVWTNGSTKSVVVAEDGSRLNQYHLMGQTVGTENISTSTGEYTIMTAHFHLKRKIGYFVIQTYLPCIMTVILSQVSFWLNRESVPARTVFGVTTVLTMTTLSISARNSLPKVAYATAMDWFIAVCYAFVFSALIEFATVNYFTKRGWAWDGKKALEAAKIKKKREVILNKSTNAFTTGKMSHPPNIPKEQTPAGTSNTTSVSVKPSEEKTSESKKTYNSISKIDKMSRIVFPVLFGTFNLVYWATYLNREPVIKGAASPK
T1 sequence (P28472 26-473 partner): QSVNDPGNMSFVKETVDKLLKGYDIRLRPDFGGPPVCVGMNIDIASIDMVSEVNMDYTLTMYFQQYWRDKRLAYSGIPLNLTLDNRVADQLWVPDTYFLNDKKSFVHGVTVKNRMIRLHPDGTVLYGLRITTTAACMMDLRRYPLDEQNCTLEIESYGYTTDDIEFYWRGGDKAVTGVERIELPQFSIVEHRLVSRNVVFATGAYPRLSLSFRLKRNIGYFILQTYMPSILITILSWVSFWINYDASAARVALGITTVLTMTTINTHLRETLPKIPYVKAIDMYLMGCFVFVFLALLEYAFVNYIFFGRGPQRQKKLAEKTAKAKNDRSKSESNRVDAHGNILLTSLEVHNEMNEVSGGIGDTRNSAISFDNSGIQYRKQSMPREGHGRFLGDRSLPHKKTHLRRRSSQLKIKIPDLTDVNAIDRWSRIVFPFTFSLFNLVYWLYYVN
T1 sequence (P18507 40-467 limits assumed): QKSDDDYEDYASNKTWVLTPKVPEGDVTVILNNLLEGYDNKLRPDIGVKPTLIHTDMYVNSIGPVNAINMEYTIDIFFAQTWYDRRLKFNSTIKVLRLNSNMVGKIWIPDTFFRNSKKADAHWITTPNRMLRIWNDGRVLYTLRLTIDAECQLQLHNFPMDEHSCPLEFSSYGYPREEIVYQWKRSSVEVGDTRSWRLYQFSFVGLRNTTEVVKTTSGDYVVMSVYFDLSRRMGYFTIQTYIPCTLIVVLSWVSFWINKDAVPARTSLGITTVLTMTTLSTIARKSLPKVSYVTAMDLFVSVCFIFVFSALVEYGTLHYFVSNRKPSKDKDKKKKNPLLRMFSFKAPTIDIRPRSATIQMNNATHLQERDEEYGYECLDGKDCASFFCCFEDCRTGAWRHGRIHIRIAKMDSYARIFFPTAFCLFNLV
Nature of the series: GABA-gated Cl- current potentiation in Xenopus oocytes expressing GABAA α5β3γ2 (TEVC). The class given is cell-based. Conditions: for activation at 1 µM: read-out: GABA α5 EC50 % potentiation; for positive allosteric modulation of GABA at GABAA α5 receptors: concentration response 0.01-100 μM, FIGS. 1(A)-(D). The text has this:
(§1) Step 1: Establish Clones of GABAAR Subunits (α5, β3, γ2, α1, α2 and α3) and Prepare the Corresponding cRNAs: Human clones of GABAA-R α5, β3, γ2, α1, α2 and α3 subunits are obtained from commercial resources (e.g., OriGene, http://www.origene.com and Genescript, http://www.genescript.com). These clones are engineered into pRC, pCDM, pcDNA, and pBluescript KSM vector (for oocyte expression) or other equivalent expression vectors. Conventional transfection agents (e.g., FuGene, Lipofectamine 2000, or others) are used to transiently transfect host cells.
Adult female Xenopus laevis frogs were purchased from Nasco (Fort Atkinson, Wis.). […] All chemicals used were of reagent grade. […] Stock solutions of Diazepam, Flumazenil and compounds of the present invention were prepared in dimethyl sulfoxide (DMSO) and then diluted to an appropriate concentration with the extracellular solution just before use. To avoid adverse effects from DMSO exposure, the final concentration of DMSO was not higher than 0.3% (v/v).
Upon conclusion of compound testing and successful washout, a 1.0 μM Diazepam was tested and used for comparative activity on the two GABAAR subtypes.
Other concentrations of the test compound may also be tested following the same protocol.
Results are expressed as mean±SEM.

For series [2], the target named is T2, GABAA α1 receptors (α1β2γ2) (Homo sapiens, UniProt P14867+P18507).
T2 construct: expressed in transfected cells; host or cells: Xenopus laevis oocytes injected with cDNAs
T2 sequence (P14867 28-456): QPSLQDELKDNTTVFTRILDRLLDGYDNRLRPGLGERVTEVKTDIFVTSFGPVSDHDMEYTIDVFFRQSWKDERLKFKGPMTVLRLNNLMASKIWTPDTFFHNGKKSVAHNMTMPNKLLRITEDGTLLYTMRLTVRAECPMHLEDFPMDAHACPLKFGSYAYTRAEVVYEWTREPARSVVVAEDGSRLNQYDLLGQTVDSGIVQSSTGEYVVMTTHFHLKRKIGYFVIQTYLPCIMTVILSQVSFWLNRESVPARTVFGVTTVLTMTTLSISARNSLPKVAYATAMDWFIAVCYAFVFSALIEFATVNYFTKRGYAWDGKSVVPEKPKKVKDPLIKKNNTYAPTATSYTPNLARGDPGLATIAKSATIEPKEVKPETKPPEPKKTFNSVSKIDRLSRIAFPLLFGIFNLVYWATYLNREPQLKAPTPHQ
T2 sequence (P47870 25-512 partner limits assumed): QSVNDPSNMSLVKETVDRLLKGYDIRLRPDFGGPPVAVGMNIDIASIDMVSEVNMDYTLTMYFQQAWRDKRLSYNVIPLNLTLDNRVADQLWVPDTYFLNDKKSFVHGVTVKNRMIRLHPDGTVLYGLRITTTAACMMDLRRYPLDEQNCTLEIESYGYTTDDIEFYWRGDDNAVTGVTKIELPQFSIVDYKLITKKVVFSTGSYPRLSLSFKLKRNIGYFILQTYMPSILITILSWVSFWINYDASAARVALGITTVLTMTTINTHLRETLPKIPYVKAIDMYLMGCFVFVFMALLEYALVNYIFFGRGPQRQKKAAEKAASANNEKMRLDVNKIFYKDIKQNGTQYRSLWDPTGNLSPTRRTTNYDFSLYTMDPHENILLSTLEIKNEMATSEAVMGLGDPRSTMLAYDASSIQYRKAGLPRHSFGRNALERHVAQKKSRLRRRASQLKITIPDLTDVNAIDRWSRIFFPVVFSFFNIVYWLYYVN
T2 sequence (P18507 40-467 limits assumed): T1 sequence (P18507 40-467 limits assumed)
Briefly: GABA-gated Cl- current in Xenopus oocytes expressing GABAA α1β2γ2 (TEVC), off-target activity. The class given is cell-based. Conditions: concentration response 0.01-100 μM; FIGS. 1(A)-(D).
Description: as §1
Xenopus oocytes were isolated according to previously published procedures (see, e.g., Goldin et al. Methods Enzymol. 207:266-279 (1992)). The isolated Xenopus oocytes were injected with GABAAR cDNAs (1:1:1 ratio for a total volume of 1 ng of α1βγ2 or α5β3γ2) cloned into mammalian expression vectors. In particular, α1, β2, γ2 were cloned into pcDNA3.1. and α5 and β3 were cloned into pcDNA3.1 myc-His. Vectors were verified by partial sequencing (DNA Core Facility, University of Southern California, USA). After injection, oocytes were stored in incubation medium (Modified Barth's Saline (MBS) supplemented with 2 mM sodium pyruvate, 0.5 mM theophylline and 50 mg/L gentamycin), in petri dishes (VWR, San Dimas, Calif.). All solutions were sterilized by passage through 0.22 μM filters. […] Oocytes were used in experiments for up to 5 days after injection.
A high-throughput two-electrode voltage clamp (TEVC) system (OpusXpress A6000; Molecular Devices, Union City, Calif.), which automates the impalement of oocytes, fluid delivery and current recording from 8 oocytes in parallel, was used to carry out all electrophysiological recordings.
Xenopus Oocytes expressing GABAA-R α5β3γ2 or α1β2γ2 subtype, as prepared in section (A) above, were placed in 8 chambers of OpusXpress and perfused by MBS at 3 mL/min. Glass electrodes back-filled with 3 M KCl (0.5-3 megaohms) were used. Membrane potential of oocytes was voltage-clamped at −60 mV. Oocytes with holding current larger than 0.5 μA were discarded.
Data for each experimental point were obtained from 4 or more Xenopus oocytes and from at least two different frogs. The n refers to the number of Xenopus oocytes tested. Results are expressed as mean±SEM. […] Prism (GraphPAD Software, San Diego, Calif.) and Excel were used to perform curve fitting and statistical analyses.

Another series deals with GABAA α5 receptor (Rattus norvegicus, UniProt P18508+P19969). Briefly: GABAA α5 receptor occupancy in vivo with Ro 15-4513 tracer (hippocampus vs cerebellum). The settings on record: tracer 1 μg/kg, i.v., after vehicle administration. The text has this: Adult male Long Evans rats (265-295 g, Charles River, Portage, Mich., n=4/group) were used for GABAA α5 receptor occupancy studies. Rats were individually housed in ventilated stainless-steel racks on a 12:12 light/dark cycle. Food and water were available ad libitum.
Chain of GABAA α5 receptor (P19969 32-464 limits assumed): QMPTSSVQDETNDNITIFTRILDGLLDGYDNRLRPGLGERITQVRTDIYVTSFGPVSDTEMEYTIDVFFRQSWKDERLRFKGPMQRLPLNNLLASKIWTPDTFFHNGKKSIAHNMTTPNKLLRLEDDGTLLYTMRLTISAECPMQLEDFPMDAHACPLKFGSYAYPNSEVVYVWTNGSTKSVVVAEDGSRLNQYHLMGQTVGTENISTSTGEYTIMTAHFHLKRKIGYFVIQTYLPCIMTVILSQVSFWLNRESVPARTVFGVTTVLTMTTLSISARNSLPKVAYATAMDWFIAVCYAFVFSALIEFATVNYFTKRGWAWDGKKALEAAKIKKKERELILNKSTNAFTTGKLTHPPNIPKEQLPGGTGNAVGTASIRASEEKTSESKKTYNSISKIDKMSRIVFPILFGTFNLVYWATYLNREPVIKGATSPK
Chain of GABAA α5 receptor (P18508 39-466): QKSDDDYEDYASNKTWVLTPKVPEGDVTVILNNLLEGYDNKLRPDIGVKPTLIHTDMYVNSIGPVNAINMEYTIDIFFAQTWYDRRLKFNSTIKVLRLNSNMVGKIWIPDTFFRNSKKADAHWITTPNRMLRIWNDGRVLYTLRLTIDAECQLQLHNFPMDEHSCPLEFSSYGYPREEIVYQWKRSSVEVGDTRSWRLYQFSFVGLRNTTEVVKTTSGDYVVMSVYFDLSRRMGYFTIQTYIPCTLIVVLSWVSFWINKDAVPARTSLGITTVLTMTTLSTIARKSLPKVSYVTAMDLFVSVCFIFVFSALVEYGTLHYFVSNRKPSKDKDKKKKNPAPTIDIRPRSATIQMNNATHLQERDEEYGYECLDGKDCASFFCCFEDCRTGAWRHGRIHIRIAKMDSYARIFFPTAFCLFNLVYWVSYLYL
Chain of GABAA α5 receptor (P63079 26-473 partner): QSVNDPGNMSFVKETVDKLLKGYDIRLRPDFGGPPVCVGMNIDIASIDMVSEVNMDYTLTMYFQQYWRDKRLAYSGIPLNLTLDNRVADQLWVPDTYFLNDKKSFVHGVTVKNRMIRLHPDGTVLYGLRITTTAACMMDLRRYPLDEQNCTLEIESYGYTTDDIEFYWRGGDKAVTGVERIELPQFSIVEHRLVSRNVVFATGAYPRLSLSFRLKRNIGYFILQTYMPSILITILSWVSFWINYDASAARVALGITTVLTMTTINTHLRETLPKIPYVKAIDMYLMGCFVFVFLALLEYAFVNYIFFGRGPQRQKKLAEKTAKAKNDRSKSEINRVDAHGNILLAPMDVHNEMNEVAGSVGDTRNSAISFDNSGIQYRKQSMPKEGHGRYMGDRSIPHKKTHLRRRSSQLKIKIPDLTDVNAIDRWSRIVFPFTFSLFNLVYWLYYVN
Ro 15-4513 was used as a receptor occupancy (RO) tracer for GABAA α5 receptor sites in the hippocampus and cerebellum. Ro 15-4513 was chosen as the tracer based on its selectivity for GABAA α5 receptors relative to other alpha subunit containing GABAA receptors and because it has been successfully used for GABAA α5 RO studies in animals and humans (see, e.g., Lingford-Hughes et al., J. Cereb. Blood Flow Metab. 22:878-89 (2002); Pym et al, Br. J. Pharmacol. 146: 817-825 (2005); and Maeda et al., Synapse 47: 200-208 (2003)). Ro 15-4513 (1 μg/kg), was dissolved in 25% hydroxyl-propyl beta-cyclodextrin and administered i.v. 20′ prior to the RO evaluations. Methyl 3,5-diphenylpyridazine-4-carboxylate (0.1-10 mg/kg) was synthesized by Nox Pharmaceuticals (India) and was dissolved in 25% hydroxyl-propyl beta-cyclodextrin and administered i.v. 15′ prior to tracer injection.
The rats were sacrificed by cervical dislocation 20′ post tracer injection. The whole brain was rapidly removed, and lightly rinsed with sterile water. Trunk blood was collected in EDTA coated eppendorf tubes and stored on wet ice until study completion. Hippocampus and cerebellum were dissected and stored in 1.5 ml eppendorf tubes, and placed on wet ice until tissue extraction. In a drug naïve rat, six cortical brain tissues samples were collected for use in generating blank and standard curve samples.
Acetonitrile containing 0.1% formic acid was added to each sample at a volume of four times the weight of the tissue sample. For the standard curve (0.1-30 ng/g) samples, a calculated volume of standard reduced the volume of acetonitrile. The sample was homogenized (FastPrep-24, Lysing Matrix D; 5.5 m/s, for 60 seconds or 7-8 watts power using sonic probe dismembrator; Fisher Scientific) and centrifuged for 16-minutes at 14,000 rpm. The (100 μl) supernatant solution was diluted by 300 μl of sterile water (pH 6.5). This solution was then mixed thoroughly and analyzed via LC/MS/MS for […] (tracer) and methyl 3,5-diphenylpyridazine-4-carboxylate.
Receptor occupancy was determined by the ratio method which compared occupancy in the hippocampus (a region of high GABAA α5 receptor density) with occupancy in the cerebellum (a region with low GABAA α5 receptor density) and additionally by a high dose of the GABAA α5 negative allosteric modulator L-655,708 (10 mg/kg, i.v.) to define full occupancy.

“Also recorded” adds a separate entry of the source. Where only a bound is given, the exact number is not on record here.

As to `CNC(=O)c1c(-c2ccccc2)cnnc1-c1ccccc1` [Compound 1, N-methyl-3,5-diphenylpyridazine-4-carboxamide], in series [1], the activation at 1 µM worked out at 8.5%. Same read-out and setting: with `CC(C)NC(=O)c1c(-c2ccccc2)cnnc1-c1ccccc1` [Compound 2] the figure was 8.2%. Same read-out and setting: with `NC(=O)c1c(-c2ccccc2)cnnc1-c1ccccc1` [Compound 3] the figure was 11.1%. Take `CN(C)C(=O)c1c(-c2ccccc2)cnnc1-c1ccccc1` [Compound 4]: the “positive allosteric modulation at GABAA α1 receptors” value in series [2] is “markedly reduced positive allosteric modulation”. Also, in series [1], the “positive allosteric modulation of GABA at GABAA α5 receptors” value is “strong positive allosteric modulation” and the activation at 1 µM is 42%. As for `O=C(c1c(-c2ccccc2)cnnc1-c1ccccc1)N(Cc1ccccc1)Cc1ccccc1` [Compound 5], the activation at 1 µM in series [1] is 4.6%. Take `O=C(NCc1ccccc1)c1c(-c2ccccc2)cnnc1-c1ccccc1` [Compound 9]: in series [1], the activation at 1 µM was determined as 10%. Still for that read-out and setting: the value for `COc1cccc(-c2nncc(-c3ccccc3)c2C(=O)O)c1` [Compound 11] was 19.2%; that for `CC1COC(c2c(-c3ccccc3)cnnc2-c2ccccc2)=N1` (centres unmarked) [Compound 21, 2-(3,5-diphenylpyridazin-4-yl)-4-methyl-4,5-dihydrooxazole] was 5.3%. `CCc1coc(-c2c(-c3ccccc3)cnnc2-c2ccccc2)n1` [Compound 22, 2-(3,5-diphenylpyridazin-4-yl)-4-ethyloxazole]: the activation at 1 µM in series [1] was determined as 8.6%. On to `COc1cccc(-c2nncc(-c3ccccc3)c2-c2nc(C)co2)c1` [Compound 24], for which the activation at 1 µM in series [1] amounted to 6%. On the same count and under the same terms, the value for `COC(=O)C1COC(c2c(-c3ccccc3)cnnc2-c2ccccc2)=N1` (centres unmarked) [Compound 25, Methyl 2-(3,5-diphenylpyridazin-4-yl)-4,5-dihydrooxazole-4-carboxylate] was 8.6%. As to `COC(=O)c1coc(-c2c(-c3ccccc3)cnnc2-c2ccccc2)n1` [Compound 26, Methyl 2-(3,5-diphenylpyridazin-4-yl)oxazole-4-carboxylate], in series [2], the “positive allosteric modulation at GABAA α1 receptors” value is “markedly reduced positive allosteric modulation; also recorded: no evidence of activity”. For the same compound, in series [1], the “positive allosteric modulation of GABA at GABAA α5 receptors” value is recorded as “strong positive allosteric modulation” and the activation at 1 µM was found to be 15.8%.

Take `CCOC(=O)c1ncn2c1CN(C)C(=O)c1cc(N=[N+]=[N-])ccc1-2` [Ro 15-4513]: the “levels of Ro 15-4513 in hippocampus compared with cerebellum” value at GABAA α5 receptor is above 5 fold.
